The subject of one series is plasma proteins. To be noted: cited from earlier work.
Another series relates to S. aureus USA300. Nature of the series: Induced tolerance assay (23 days). To be noted: for MIC: Staphylococcus aureus.
Series [1] deals with fusidic acid-resistant S. aureus isolates. Details: method as in Castanheira et al., 2010. To be noted: ref Castanheira et al., 2010; cited from earlier work.
Series [2] relates to Staphylococcus aureus USA300 JE2. Nature of the series: Broth microdilution (MIC/MBC). To be noted: USA300, broth microdilution, starter concentration of the tolerance assay, read-out: MIC value for USA300. Format: cell-based.
A further series has as its system MRSA strain 43484. Nature of the series: Mouse skin (wound) infection model, topical treatment. To be noted: 2%, 50 μl topical twice daily for 3 days, female mice, skin biopsies day 4. Format: in vivo, Staphylococcus aureus. The method, then: To study the effect of topical treatment with JBC 1847 against MRSA strain 43484, a mouse skin infection model was established. Initially, female mice (18–22 g) were orally treated with 45 μl nurofen (20 mg ibuprofen/ml) and anaesthetized with 0.15 ml s.c. of Zoletil mix. The fur was removed from an area of 6 cm^2 and a part of epidermis was subsequently scraped off to obtain a 1 cm^2 superficial skin lesion. The mice were inoculated with 10 μl of a saline solution containing approximately 10^7 CFU. The day after inoculation, topical treatment with 50 μl test compound was initiated and performed twice daily for a 3-day period. Fucidic acid was included as a positive control, and vehicle treatment was included as a negative control. Through the entire study, the behavior and clinical signs of the mice were carefully observed. Mice were killed the day after last treatment, and skin biopsies from the wounded area were collected. The skin samples were homogenized using a Dispomixer and serially diluted in saline/Triton X. To determine the bacterial concentration, 20 μl spots were transferred to MRSA Brilliance agar plates (Oxoid, Thermo Scientific, Roskilde, Denmark) and incubated 20–48 h at 35°C.
Data were statically analyzed and visualized using RStudio v3.6.3 ([R Core Team, 2020]) and Microsoft excel. In general, the values reflecting the bacterial concentration (CFU/ml) were transformed into a logarithmic scale. In the growth and viability assay, the mean numbers of the bacterial concentrations from the triplicates were plotted against time and standard deviations shown as error bars. To investigate differences in bacterial concentration between treatment groups in the in vivo assay, multiple group comparisons were performed using ANOVA and P < 0.05 considered significant. The data was visualized in a standard box plot.

The test system of series [3] is Salmonella typhimurium TA1537. In words: Ames test. To be noted: Positive control. Background: The Ames test uses bacterial strains that need an amino acid and regain growth without it when mutated back.
In series [4] the test system is Salmonella typhimurium TA98. To be noted: Positive control.
In series [5] the test system is Salmonella typhimurium TA100. To be noted: Positive control.
The test system of series [6] is Escherichia coli mutant [wp2 (pKM101)]. To be noted: Positive control, + S9, 4 µg/well.
Series [7] has as its system Salmonella typhimurium TA1535. To be noted: Positive control.
Another series relates to MRSA strain. More on the design: method as in Nehme et al., 2018. To be noted: broth dilution method, ref Nehme et al., 2018; cited from earlier work. (Dilution methods test growth across graded concentrations, often in twofold steps.)
The next series has as its system E. coli strains. Details: method as in Nehme et al., 2018. To be noted: broth dilution method, ref Nehme et al., 2018; cited from earlier work.

≈ marks a conversion by molar mass, not a printed value. Read-outs that look alike come from different tables or passages of the source.

Here are results for seven molecules from publication PMC7555839 (Frontiers in Microbiology, 2020).

As a reminder, the MIC is the smallest concentration in the dilution series that meets the test's criterion for growth inhibition.

`CO/N=C(\C(=O)N[C@@H]1C(=O)N2C(C(=O)O)=C(CSc3nc(=O)c(=O)[nH]n3C)CS[C@H]12)c1csc(N)n1` [ceftriaxone]: in the series on plasma proteins (ref Dutta et al., 2001), the “PPB (plasma protein binding)” value is 90–95%.
Take `CC(=O)O[C@H]1C[C@@]2(C)[C@@H](C[C@@H](O)[C@H]3[C@@]4(C)CC[C@@H](O)[C@@H](C)[C@@H]4CC[C@@]32C)/C1=C(\CCC=C(C)C)C(=O)O` [Fusidic acid, reference compound]: the MIC with S. aureus USA300 (USA300, 24 h, read-out: MIC Day 1) was 0.03 µg/mL (≈ 0.0581 µM); in the series on S. aureus USA300 (USA300, 552 h, read-out: MIC Day 23) it was 7 µg/mL (≈ 13.5 µM); in series [2], 0.03 µg/mL (≈ 0.0581 µM). Moreover, the “Increase in MIC” value in the series with S. aureus USA300 (tolerance assay, during the 23 days) was found to be 233 fold. Further, the “PPB (plasma protein binding)” value in the series on plasma proteins (ref Zeitlinger et al., 2011) is “approximately 98%”. For the same molecule, in series [1], the “MIC values (highly elevated)” value is at least 512 µg/mL. The “Reduction of bacterial counts compared with the vehicle” value with MRSA strain 43484 was 1.5 log10 CFU.
With `COc1ccc2nc3cc(Cl)ccc3c(NCCCNCCCl)c2c1` [ICR 191, Acridine Mutagen (ICR 191), reference compound], the “Mean number of reverse mutated colonies” value in series [3] (TA1537, −S9, 0.2 µg/well) came to 54.67 ± 16.26.
For `Nc1ccc2cc3ccccc3cc2c1` [2-AA, 2-Aminoanthracene, reference compound], the “Mean number of reverse mutated colonies” value in series [4] (TA98, + S9, 0.6 µg/well) is reported as 332.0 ± 36.66; in [3] (TA1537, + S9, 0.6 µg/well), 60.00 ± 5.00; in [5] (TA100, + S9, 0.6 µg/well) it was 240.0 ± 49.15; in series [6] it was 161.33 ± 18.90; in series [7] (TA1535, + S9, 0.6 µg/well), 34.00 ± 5.20.
Take `CN(C)CCCN1c2ccccc2Sc2ccccc21` [Promazine]: the MIC with MRSA strain and in the series with E. coli strains was 128 mg/L (≈ 450 µM) in each case.
In the case of `[N-]=[N+]=[N-].[Na+]` [SA, Sodium azide, reference compound], the “Mean number of reverse mutated colonies” value was 176.0 ± 46.13 in series [5] (TA100, −S9, 0.24 µg/well) and 111.0 ± 9.54 in [7] (TA1535, −S9, 0.24 µg/well).
With `O=[N+]([O-])c1ccc2c(c1)Cc1ccccc1-2` [2-NF, 2-Nitrofluorene, reference compound], in [4] (TA98, −S9, 2 µg/well), the “Mean number of reverse mutated colonies” value was determined as 268.00 ± 28.84.
